Patent publication US20170216295A1, “CCR9 ANTAGONIST COMPOUNDS” (Merck Sharp & Dohme Corp., priority 2014, published 2017)

Assays:
[1] = molecular target: T1, CCR9 receptor (Homo sapiens, UniProt P51686); experiment: Calcium mobilization (Ca FLIPR) assay, antagonist mode vs TECK; type: cell-based; conditions: for LipE: LipE = pIC50-clogD; for IC50: cells expressing CCR9, TECK at EC80 0.01 uM, read-out: CCR9 Ca2+ IC50
T1 sequence (P51686 1-369): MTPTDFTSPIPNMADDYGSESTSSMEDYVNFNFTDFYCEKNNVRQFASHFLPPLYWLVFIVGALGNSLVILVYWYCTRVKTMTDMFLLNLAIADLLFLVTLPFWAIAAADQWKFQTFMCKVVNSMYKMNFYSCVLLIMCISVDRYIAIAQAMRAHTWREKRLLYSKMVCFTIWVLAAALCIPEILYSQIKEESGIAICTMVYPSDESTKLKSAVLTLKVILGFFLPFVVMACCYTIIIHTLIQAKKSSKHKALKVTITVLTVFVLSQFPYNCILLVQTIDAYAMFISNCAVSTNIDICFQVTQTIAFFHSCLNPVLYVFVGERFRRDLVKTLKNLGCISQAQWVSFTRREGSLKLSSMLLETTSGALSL
Protocol: Calcium Mobilization Assay:
Cells expressing CCR9 receptor (MultiSpan, Hayward, Calif.) were seeded in 384-well plates. Ca^2+ assays were conducted after overnight culture in the plates according to the manufacturer's protocol using Screen Quest™ Fluo-8 no wash kit (AAT Bioquest, Sunnyvale, Calif.). Dye loading buffer was added to the cells and incubated for 45 minutes at 37° C. followed by 15 minutes incubation at room temperature. Compounds in the presence of 0.1% DMSO were applied to the cells during calcium flux measurement. Calcium flux was monitored for 90 seconds with compound application after 10 seconds. For antagonist mode, cells were preincubated with the compound at room temperature for 10 minutes before the application of the control agonist TECK (Preprotech, Rocky Hill, N.J.) at EC80 concentration of 0.01 uM obtained from dose-response curves of control agonist.

[2] = system: Molt-4 cells; experiment: Chemotaxis assay of Molt-4 cells towards TECK; type: cell-based; conditions: Molt-4 cells in HBSS buffer with 0.1% BSA, TECK at EC80
Protocol: Molt-4 cells were harvested and re-suspended in HBSS buffer with 0.1% BSA or in 100% human serum. Cell suspensions were mixed with compound solutions for 10 min and then seeded onto the upper chamber of the ChemoTX chemotaxis plates with 5 μm pore size polycarbonate membrane from NeuroProbe (Gaithersburg, Md.). EC80 concentration of TECK was applied in the bottom chamber. After 2 hours of incubation at 37° C., the assay was terminated by removing the upper chamber. The cells migrated into the bottom chamber were quantified with CyQUANT solution from Invitrogen (Grand Island, N.Y.).

[3] = Rat liver microsome clearance; type: in vitro ADME; conditions: for RLM CL (rat liver microsome hepatic clearance): first value of RLM/HLM cell
Protocol: Microsomal In-Vitro Clearance:
The test articles (2 μM) were incubated for one hour in 1 mg/mL rat hepatic microsomes with 2 mM NADPH at 37° C. with aliquots removed at t=0, 15, 30 and 60 minutes. Incubations were terminated at the specified times by protein precipitation, and samples were centrifuged. Resultant supernants were analyzed by LC-MS/MS for the amount of incubated compound remaining, and the half life (t1/2) and intrinsic microsomal clearance rate (CLint) of each compound was calculated.

[4] = Human liver microsome clearance; type: in vitro ADME; conditions: second value of RLM/HLM cell
[5] = pH-solubility (high-throughput, buffers); type: physicochemical; conditions: for Sol. pH 4: 1000 ug compound in 1 mL pH 4 buffer; for Sol. pH 7: 1000 ug compound in 1 mL pH 7 buffer; for Sol. pH 9: 1000 ug compound in 1 mL pH 9 buffer
Protocol: Solubility of representative acidic triazoles was measured in 3 buffer systems (pH 4, 7.4 and 9) using an in-house high-throughput solubility method. A stock solution of test article was prepared in DMA (20 mg/ml) and spiked into each buffer system (20× dilution) to target 1 mg/ml concentration. The samples were vortexed briefly and equilibrated for 24 hr at RT. Samples were then filtered using 0.22u PVDF membrane filters and analyzed for drug concentration using HPLC.

[6] = Rat PK (i.v./p.o.); type: in vivo
Protocol: Sprague Dawley Rats (n=3) were dosed both intravenously and orally with a solution formulation followed by plasma collection at time points providing sufficient coverage of the absorption, distribution, metabolism and excretion phases of the test article. Test article concentrations at each time point were determined by LC-MS detected bioanalytical analysis. Non-compartmental pharmacokinetic analysis of the intravenous bioanalytical data provided area under the curve, clearance, volume of distribution, and terminal half life parameters while similar analysis of plasma samples from animals dosed orally provided area under the curve, bio-available fraction and oral terminal half life pharmacokinetic parameters.
Rats (n of 3) were dosed both intravenously and orally with the various compounds. Plasma samples were collected at time points chosen to provide sufficient coverage of the absorption, distribution, metabolism and excretion phases of the test compound. LC-MS detected bioanalytical analysis was performed on the plasma samples utilizing a standard curve and quality control samples to provide enough precision and accuracy to determine the concentrations test article for plasma from each time point. Non-compartmental pharmacokinetic analysis of the intravenous bioanalytical data provided area under the curve, clearance, volume of distribution, terminal half life parameters while similar analysis of plasma samples from animals dosed orally provided area under the curve, bio-available fraction and oral terminal half life pharmacokinetic parameters (see FIG. 1).

[7] = Rat plasma protein binding (equilibrium dialysis); type: in vitro ADME
Protocol: (§1) Plasma and Microsome Protein Binding:
(§2) Protein binding was measured via high throughput equilibrium dialysis with the HTDialysis device fitted with a 12,000 to 14,000 Da molecular weight cutoff membrane. Rat plasma or 1 mg/mL rat hepatic microsomes spiked with test article were dialyzed vs. phosphate buffer for 6 hours. Aliquots were removed from both sides of the membrane and diluted with equal volumes of the opposite matrix. Following protein precipitation and centrifugation, the resultant matrix matched supernatants were analyzed by LC-MS to compare the plasma or microsome dialysate test article signal to the buffer signal. Test article stability was monitored during the course of the assay.

[8] = Rat microsome protein binding (equilibrium dialysis); type: in vitro ADME; conditions: rat liver microsomes, 1 mg/mL rat hepatic microsomes, read-out: Rat Microsomal Binding Fu
Protocol: as §1, §2

[9] = In-vitro precipitation time in simulated gastric and intestinal fluids; type: physicochemical; conditions: oral dosing solution
Protocol: Dosing solutions at 1 mg/mL for rat PK studies were prepared using either a pH+co-solvent approach or pH+cosolvent+surfactant approach. The total amounts of cosolvent and surfactant used in the solution formulations ranged from 5-8% v/v and q.s. with pH 9 phosphate buffer. Solutions were assessed for their potential for in-vivo precipitation using an in-vitro dilution test (1:1, 1:4 and 1:9) in simulated gastric and intestinal fluids.

Row | SMILES | LipE [1] | IC50 [1] | IC50 ([2]; Homo sapiens) | metabolic stability (in words) [3] | RLM CL (rat liver microsome hepatic clearance) [3] | HLM CL (human liver microsome hepatic clearance) [4] | Sol. pH 4 [5] | Sol. pH 7 [5] | Sol. pH 9 [5] | Rat In vivo CL as % Hepatic Blood Flow [6] | Vd (in words) [6] | exposure (in words) [6] | half-life (in words) [6] | in vivo CL (in words) [6] | other results
1 | CCc1nc2ncnn2c(O)c1Cc1ccc(C(C)(C)C#N)cc1 [Compound 37] | 5.6 | 64 nM | 500 nM | increased | 7 mL/min/kg | 1 mL/min/kg | > 1000 ug/mL | 994 ug/mL | 982 ug/mL | 3% | increased | highest exposure for the series | extended | lower | CLint scaled at 2 μM ([3]; rat liver microsomes, 2 μM, 1 mg/mL rat hepatic microsomes, NADPH, read-out: Rat Microsome In Vitro CLint): 8 mL/min/kg; clearance ([6]; Sprague Dawley, plasma, iv, read-out: Rat In vivo CL): 1 mL/min/kg; fraction unbound at 6 h ([7]; read-out: Rat Plasma Protein Binding (PPB) Fu): 0.011; fraction unbound at 6 h [8]: 0.85
2 | COCc1nc2nc(O)c(Cc3ccc(C(C)(C)C)cc3)c(COC)n2n1 [Compound 38, 6-(4-(tert-butyl)benzyl)-2,7-bis(methoxymethyl)-[1,2,4]triazolo[1,5-a]pyrimidin-5-ol] | 5.9 | 13 nM | – | improved | 15 mL/min/kg | 5 mL/min/kg | 132 ug/mL | 999 ug/mL | 989 ug/mL | 9% | low | good | – | relatively low | IC50 [2]: 200 nM; Rat Microsome In Vitro CLint ([3]; 2 μM, 1 mg/mL rat hepatic microsomes, NADPH): 21 mL/min/kg; solubility (in words) [5]: improved; Rat In vivo CL ([6]; i.v.): 5 mL/min/kg; Rat Plasma Protein Binding (PPB) Fu ([7]; fraction unbound): 0.010
3 | Cc1nc2ncnn2c(O)c1Cc1ccc(C(C)(C)C)cc1 [Compound 11] | 4.4 | – | 480 nM | – | 51 mL/min/kg | 19 mL/min/kg | 13 ug/mL | 136 ug/mL | > 1000 ug/mL | – | moderate | – | short | high | oral bioavailability (in words) [6]: low
4 | Cc1nc2nc(CO)nn2c(O)c1Cc1ccc(C(C)(C)C)cc1 [Compound 39] | – | – | – | – | – | – | – | – | – | – | – | – | – | – | Solubility pH 4 ([5]; pH 4 (Table 6)): 0.024 mg/ml; Solubility pH 7.4 ([5]; pH 7.4 (Table 6)): 0.26 mg/ml; Solubility pH 9 ([5]; pH 9 (Table 6)): 1 mg/ml; In-vitro Precipitation Time (Visual assessment), SGF ([9]; simulated gastric fluid): SGF: 60 min; In-vitro Precipitation Time (Visual assessment), SIF ([9]; simulated intestinal fluid): SIF: >240 min; increase in oral bioavailability ([6]; compound 39 vs compound 6, compound 42 vs compound 40): approximately 4 fold; % F (p.o.) ([6]; oral, 6: co-solvent (pH 9), 39, 40, 42: co-solvent + surfactant (pH 9)): 43%; Oral AUC/D ([6]; oral, formulation as in Table 6): 0.32 ug · hr/ml/(mg/kg)
